Values of other authors, collected in patent publication US20060035976A1, “Methods of preventing headaches with norepinephrine precursors” (priority 2002, published 2006).

What was measured:
migraine attacks = conditions: 100 mg/day; person with Parkinson's disease, concurrently on L-DOPA, benserazide and amantadine
pain = conditions: 100 mg; including a patient experiencing a cluster headache

| SMILES | migraine attacks (patient report) (migraine attacks) | analgesic effects (pain) | time that increased plasma levels of DOPS and NE remain (after oral administration of DOPS) | time of peak NE levels (after oral ingestion of DOPS) [h] | time of peak plasma levels of DOPS (after oral ingestion of DOPS) [h] | specific uptake of DOPS (microvessel preparations) |
| --- | --- | --- | --- | --- | --- | --- |
| N[C@H](C(=O)O)[C@H](O)c1ccc(O)c(O)c1 [L-DOPS] | migraine attacks were resolved | alleged analgesic effects |  |  |  |  |
| N[C@H](C(=O)O)[C@H](O)c1ccc(O)c(O)c1 [DOPS, Threo-3-(3,4-dihydroxyphenyl)serine] |  |  | at least 12 hours | 5 | 3 | Specific uptake of DOPS has also been demonstrated |
